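Exposure lasted 48 hours, with cells grown in 96-well plates and compounds tested at five concentrations. Here, GI50 denotes the concentration required for 50% inhibition of growth. TGI is the concentration that stops growth completely.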
Experiments:
Test in all cases: inhibition of tumour cell growth, NCI panel, 48 h
OVCAR-3 ovarian = tested on: OVCAR-3 ovarian
786-0 renal = tested on: 786-0 renal
RXF 393 renal = tested on: RXF 393 renal
HCT-116 colon = tested on: HCT-116 colon
SNB-75 CNS = tested on: SNB-75 CNS
EKVX NSCLC = tested on: EKVX NSCLC
HCC-2998 colon = tested on: HCC-2998 colon
SF-268 CNS = tested on: SF-268 CNS
HT29 colon = tested on: HT29 colon
OVCAR-5 ovarian = tested on: OVCAR-5 ovarian

## Cc1ccc(-c2csc(N(C(=O)N3CCN(c4cc5c(cc4F)c(=O)c(C(=O)O)cn5C4CC4)CC3)c3ccccc3)n2)cc1
OVCAR-3 ovarian
  GI50: 0.391 µM
  TGI: > 100 µM
786-0 renal
  GI50: 0.292 µM
  TGI: 1.83 µM
RXF 393 renal
  GI50: 0.368 µM
  TGI: 20.5 µM
HCT-116 colon
  GI50: 0.333 µM
  TGI: > 100 µM
SNB-75 CNS
  GI50: 0.357 µM
  TGI: 4.17 µM
EKVX NSCLC
  GI50: 0.381 µM
  TGI: > 100 µM
HCC-2998 colon
  GI50: 0.537 µM
  TGI: > 100 µM
SF-268 CNS
  GI50: 0.432 µM
  TGI: > 100 µM

## COc1cc2[nH]c(C(=O)c3cc(OC)c(OC)c(OC)c3)c(N)c2cc1C#CCO
OVCAR-3 ovarian
  GI50: 0.0491 µM
  TGI: 0.243 µM
786-0 renal
  GI50: 0.373 µM
  TGI: > 100 µM
HCT-116 colon
  GI50: 0.298 µM
  TGI: > 100 µM
HT29 colon
  GI50: 0.353 µM
  TGI: > 100 µM
HCC-2998 colon
  GI50: 0.775 µM
  TGI: > 100 µM
OVCAR-5 ovarian
  GI50: 3.63 µM
  TGI: > 100 µM
SF-268 CNS
  GI50: 0.957 µM
  TGI: 73.4 µM

## COc1cc(C(=O)C/C(CCC(=O)Nc2ccccc2[N+](=O)[O-])=N\NC(=O)C(N)=O)ccc1O
OVCAR-3 ovarian
  TGI: > 100 µM
786-0 renal
  TGI: > 100 µM
RXF 393 renal
  TGI: > 100 µM
HCT-116 colon
  TGI: > 100 µM
HT29 colon
  TGI: > 100 µM
EKVX NSCLC
  TGI: > 100 µM
OVCAR-5 ovarian
  TGI: > 100 µM
SF-268 CNS
  TGI: > 100 µM

## C[C@H](c1ccc(Cl)cc1N)N1C(=O)c2cc(I)ccc2N(CCCN2CCN(C)CC2)C(=O)[C@@H]1c1ccc(Cl)cc1
OVCAR-3 ovarian
  GI50: 1.8 µM
  TGI: 3.28 µM
786-0 renal
  GI50: 1.83 µM
  TGI: 3.37 µM
HCT-116 colon
  GI50: 1.3 µM
  TGI: 2.63 µM
HT29 colon
  GI50: 1.82 µM
  TGI: 3.47 µM
EKVX NSCLC
  GI50: 1.55 µM
  TGI: 3.21 µM
HCC-2998 colon
  GI50: 1.63 µM
  TGI: 3.03 µM
OVCAR-5 ovarian
  GI50: 1.77 µM
  TGI: 3.44 µM
SF-268 CNS
  GI50: 1.7 µM
  TGI: 3.2 µM

## CC(=O)CC(=O)N(CCN(C(=O)CC(C)=O)c1ccccc1)c1ccccc1
OVCAR-3 ovarian
  TGI: > 100 µM
786-0 renal
  TGI: > 100 µM
RXF 393 renal
  TGI: > 100 µM
HCT-116 colon
  TGI: > 100 µM
SNB-75 CNS
  TGI: > 100 µM
EKVX NSCLC
  TGI: > 100 µM
HCC-2998 colon
  TGI: > 100 µM
OVCAR-5 ovarian
  TGI: > 100 µM
SF-268 CNS
  TGI: > 100 µM

## O=C(O)C(=O)Cc1ccc2c(c1)OCO2
OVCAR-3 ovarian
  TGI: > 100 µM
786-0 renal
  TGI: > 100 µM
RXF 393 renal
  TGI: > 100 µM
HCT-116 colon
  TGI: > 100 µM
HT29 colon
  TGI: > 100 µM
SNB-75 CNS
  TGI: > 100 µM
EKVX NSCLC
  TGI: > 100 µM
OVCAR-5 ovarian
  TGI: > 100 µM

## CSc1ccc(-c2cn3ccsc3n2)c(O)c1
OVCAR-3 ovarian
  TGI: > 100 µM
786-0 renal
  TGI: 43.3 µM
HCT-116 colon
  TGI: > 67.3 µM
HT29 colon
  TGI: > 100 µM
SNB-75 CNS
  TGI: > 94.7 µM
EKVX NSCLC
  TGI: > 100 µM
HCC-2998 colon
  TGI: > 100 µM
OVCAR-5 ovarian
  TGI: > 100 µM
SF-268 CNS
  TGI: > 100 µM

## CC(C)C1C(=O)N2CCCC2C2(O)OC(NC(=O)C3C=C4c5cccc6[nH]cc(c56)CC4N(C)C3)(C(C)C)C(=O)N12 (configuration not stated)
OVCAR-3 ovarian
  TGI: 80.6 µM
786-0 renal
  TGI: 33 µM
HCT-116 colon
  TGI: 33.5 µM
HT29 colon
  TGI: 37.5 µM
SNB-75 CNS
  TGI: 76.7 µM
EKVX NSCLC
  TGI: 73.1 µM
HCC-2998 colon
  TGI: 42.9 µM
OVCAR-5 ovarian
  TGI: 29.7 µM
SF-268 CNS
  TGI: > 100 µM

## CCCCCCCCCOC(=S)NC
OVCAR-3 ovarian
  TGI: 36.1 µM
786-0 renal
  TGI: 33.5 µM
HT29 colon
  TGI: 42.2 µM
SNB-75 CNS
  TGI: 73.7 µM
EKVX NSCLC
  TGI: 51.6 µM
HCC-2998 colon
  TGI: 35.3 µM
OVCAR-5 ovarian
  TGI: 38.1 µM
SF-268 CNS
  TGI: 38.5 µM

From PubChem BioAssay (NCI)
